Assays:
Con-NCI-H82 cell = test: Cell viability (Promega CellTiter-Glo), Con-NCI-H82 cell; assay type: cell-based; details: Homo sapiens, NCI-H82 cell transfected with empty virus vector
Excerpt: (§1) The expression of NNMT protein in NCI-H82 cell was overexpressed by inserting the NNMT gene into NCI-H82 cell using a viral vector, and the NNMT protein-overexpressing NCI-H82 cell (ov-NNMT NCI-H82 cell) was obtained. The expression of DNMT1 in NCI-H82 cell was knocked down by transfecting shRNA (the nucleotide sequence of shRNA was […] (SEQ ID No: 3)) using a viral vector, and the NCI-H82 cell with low expression of DNMT1 protein (sh-DNMT1 NCI-H82 cell) was obtained. The control NCI-H82 cell (Con-NCI-H82 cell) was obtained by transfecting NCI-H82 cell with empty virus vector without carrying NNMT gene and shRNA. The expressing content of NNMT protein and DNMT1 protein in the Con-NCI-H82 cell, the expressing content of NNMT protein in the ov-NNMT NCI-H82 cell, and the expressing content of DNMT1 protein in the sh-DNMT1 NCI-H82 cell were detected using Western Blot assay (as shown in FIG. 3 and FIG. 4), it could be seen from FIG. 3 and FIG. 4 that the NNMT protein was overexpressed in the ov-NNMT NCI-H82 cell and the expression of DNMT1 protein was knocked down (i.e, low expression) in the sh-DNMT1 NCI-H82 cell compared with the expression level of NNMT protein and DNMT1 protein in the Con-NCI-H82 cell.

ov-NNMT NCI-H82 cell = test: Cell viability (Promega CellTiter-Glo), ov-NNMT NCI-H82 cell; assay type: cell-based; details: Homo sapiens, NCI-H82 cell overexpressing NNMT protein
Excerpt: as §1

sh-DNMT1 NCI-H82 cell = test: Cell viability (Promega CellTiter-Glo), sh-DNMT1 NCI-H82 cell; assay type: cell-based; details: Homo sapiens, NCI-H82 cell with DNMT1 knocked down
Excerpt: as §1

mPTP-inactive Daoy cell = test: Cell viability (Promega CellTiter-Glo), mPTP-inactive Daoy cell; assay type: cell-based; details: Homo sapiens, Daoy cell transfected with PPIF shRNA vector
mPTP-active Daoy cell = test: Cell viability (Promega CellTiter-Glo), mPTP-active Daoy cell; assay type: cell-based; details: Homo sapiens, Daoy cell transfected with empty virus vector
[1] = system: Daoy cell transfected with virus vector carrying shRNA that could specifically induce the degradation of PPIF mRNA; test: Mitochondria membrane potential difference by TMRM in Daoy cell transfected with PPIF shRNA; assay type: cell-based, human; details: H2O2 +, CsA −
[2] = system: Daoy cell transfected with empty virus vector without carrying shRNA; test: Mitochondria membrane potential difference by TMRM in Daoy cell transfected with empty virus vector (Con shRNA); assay type: cell-based, human; details: H2O2 +, CsA −
Daoy cell = test: Mitochondria membrane potential difference by TMRM in Daoy cell (mPTP activity); assay type: cell-based, human; details: H2O2 +, CsA −
Excerpt: For cells with active mitochondria permeability transition pore, adding peroxide (such as H2O2) could increase the activity of mitochondria permeability transition pore, resulting in a decrease in mitochondria membrane potential.

Structure (SMILES)	IC50 (Con-NCI-H82 cell)	IC50 (ov-NNMT NCI-H82 cell)	IC50 (sh-DNMT1 NCI-H82 cell)	IC50 (mPTP-inactive Daoy cell)	IC50 (mPTP-active Daoy cell)	Relative TMRM signal intensity (%), mean value [1]	Relative TMRM signal intensity (%), mean value [2]	Relative TMRM signal intensity (%) in Daoy cell after different treatments, mean value (Daoy cell)
COc1ccc2cc3[n+](cc2c1N1CCCCC1C)CCc1cc2c(cc1-3)OCO2 (stereo not drawn) [Compound AB35528]	0.27 µM	0.68 µM	1.48 µM	0.42 µM	1.49 µM	–	–	–
COc1ccc2cc3[n+](cc2c1N1CCCC(C)C1)CCc1cc2c(cc1-3)OCO2 (stereo not drawn) [Compound AB35530]	0.32 µM	0.72 µM	1.76 µM	0.55 µM	2.43 µM	–	–	–
COc1ccc2cc3[n+](cc2c1N1CCOC(C)C1)CCc1cc2c(cc1-3)OCO2 (stereo not drawn) [Compound AB35540]	5.05 µM	10.4 µM	19 µM	5.85 µM	15.7 µM	–	–	–
COc1ccc2cc3[n+](cc2c1N1CCC(F)CC1)CCc1cc2c(cc1-3)OCO2 [Compound AB35551]	1.57 µM	3.48 µM	5.96 µM	1.97 µM	5.82 µM	–	–	–
COc1ccc2cc3[n+](cc2c1N1CCCC1)CCc1cc2c(cc1-3)OCO2 [Compound AB35555]	0.37 µM	1.02 µM	2.19 µM	0.45 µM	1.58 µM	–	–	–
COc1ccc2cc3[n+](cc2c1N1CCC(F)(F)CC1)CCc1cc2c(cc1-3)OCO2 [Compound AB35556]	2.57 µM	5.85 µM	9.86 µM	3.14 µM	7.31 µM	–	–	–
COc1ccc2cc3[n+](cc2c1N1CCC2(CCO2)CC1)CCc1cc2c(cc1-3)OCO2 [Compound AB35575]	4.07 µM	8.96 µM	14.8 µM	5.85 µM	26.7 µM	–	–	–
COc1ccc2cc3[n+](cc2c1N1CCCCCC1)CCc1cc2c(cc1-3)OCO2 [Compound AB36413]	0.29 µM	0.85 µM	1.58 µM	0.32 µM	1.26 µM	–	–	–
COc1ccc2cc3[n+](cc2c1N1CCCCC1)CCc1cc2c(cc1-3)OCO2 [Compound AB36492]	0.21 µM	0.68 µM	1.46 µM	0.46 µM	1.65 µM	–	–	–
OO [Compound H2O2, H2O2]	–	–	–	–	–	95%	79%	82%
COc1ccc2cc3[n+](cc2c1N1CCC(C)CC1)CCc1cc2c(cc1-3)OCO2 [Compound SJ0001]	0.14 µM	0.58 µM	1.12 µM	0.52 µM	1.35 µM	–	–	–
COc1ccc2cc3[n+](cc2c1N1CCC(C(F)(F)F)CC1)CCc1cc2c(cc1-3)OCO2 [Compound SJ0002]	0.32 µM	0.88 µM	2.03 µM	1.56 µM	5.13 µM	–	–	–
COc1ccc2cc3[n+](cc2c1N1CCC(Cl)CC1)CCc1cc2c(cc1-3)OCO2 [Compound SJ0004]	0.74 µM	1.94 µM	2.96 µM	2.41 µM	7.45 µM	–	–	–
COc1ccc2cc3[n+](cc2c1N1CCC(C)CC1)CCc1cc2c(cc1-3)OCCO2 [Compound SJ0009]	0.18 µM	0.55 µM	1.33 µM	0.47 µM	2.06 µM	–	–	–
COc1ccc2cc3[n+](cc2c1N1CCC(C(F)(F)F)CC1)CCc1cc2c(cc1-3)OCCO2 [Compound SJ0010]	0.45 µM	0.89 µM	2.54 µM	2.09 µM	6.33 µM	–	–	–
COc1ccc2cc3[n+](cc2c1N1CCC(Cl)CC1)CCc1cc2c(cc1-3)OCCO2 [Compound SJ0012]	0.97 µM	2.35 µM	3.88 µM	2.08 µM	6.96 µM	–	–	–
